The source made the active and inactive calls. The rule behind the calls is not given here.
How the values were obtained:
HeLa = test: Antiproliferative activity against human HeLa cells assessed as inhibition of cell proliferation incubated for 4 days by Coulter counter based assay; format: functional; conditions: 96 h
U-937 [1] = test: Induction of apoptosis in human U937 cells assessed as cleavage of pro-caspase-3 at 3 uM incubated for 8 hrs by immunoblot method; format: functional, cell-based
HL-60 [2] = test: Induction of apoptosis in human HL60 cells assessed as cleavage of pro-caspase-8 at 3 uM incubated for 8 hrs by immunoblot method; format: functional, cell-based
HL-60 [3] = test: Induction of apoptosis in human HL60 cells assessed as hypodiploid cells level at 1 and 10 uM incubated for 24 hrs by propidium iodide staining based flow cytometry; format: functional, cell-based
U-937 [4] = test: Induction of apoptosis in human U937 cells over-expressing human Bcl-2 assessed as induction of morphological changes by inverted phase contrast microscopy; format: functional, cell-based
U-937 [5] = test: Induction of apoptosis in human U937 cells over-expressing human Bcl-2 assessed as induction of increase in apoptotic bodies at 3 uM incubated for 8 hrs by Hoechst 33258 staining based fluorescent microscopy; format: functional, cell-based
U-937 [6] = test: Cytotoxicity against human U937 cells over-expressing human Bcl-2 assessed as reduction in cell viability incubated for 72 hrs by MTT assay; format: functional, cell-based; conditions: for IC50: U-937, 72 h
HL-60 [7] = test: Induction of DNA laddering in human HL60 cells at 3 to 10 uM incubated for 24 hrs by ethidium bromide staining based gel electrophoresis method; format: functional, cell-based
FM3A = test: Antiproliferative activity against mouse FM3A cells assessed as inhibition of cell proliferation incubated for 2 days by Coulter counter based assay; format: functional; conditions: 48 h
HL-60 [8] = test: Induction of apoptosis in human HL60 cells assessed as hypodiploid cells level at 1 uM incubated for 24 hrs by propidium iodide staining based flow cytometry (reference value: 2.6 +/- 0.6%); format: functional
U-937 [9] = test: Induction of apoptosis in human U937 cells assessed as induction of increase in apoptotic bodies at 3 uM incubated for 8 hrs by Hoechst 33258 staining based fluorescent microscopy; format: functional, cell-based
U-937 [10] = test: Induction of apoptosis in human U937 cells over-expressing human Bcl-2 assessed as induction of cell shrinkage at 3 uM incubated for 8 hrs by Hoechst 33258 staining based fluorescent microscopy; format: functional
L1210 [11] = test: Antiproliferative activity against mouse L1210 cells assessed as inhibition of cell proliferation incubated for 2 days by Coulter counter based assay; format: functional; conditions: L1210, 48 h
CCRF-CEM = test: Antiproliferative activity against human CEM cells assessed as inhibition of cell proliferation incubated for 3 days by Coulter counter based assay; format: functional; conditions: 72 h
U-937 [12] = test: Cytotoxicity against human U937 cells assessed as reduction in cell viability incubated for 72 hrs by MTT assay; format: functional, cell-based; conditions: for IC50: U-937, 72 h
HL-60 [13] = test: Induction of apoptosis in human HL60 cells assessed as cleavage of pro-caspase-3 at 3 uM incubated for 8 hrs by immunoblot method; format: functional, cell-based
U-937 [14] = test: Induction of apoptosis in human U937 cells assessed as induction of increase in condensed and fragmented chromatin at 3 uM incubated for 8 hrs by Hoechst 33258 staining based fluorescent microscopy; format: functional, cell-based
U-937 [15] = test: Induction of apoptosis in human U937 cells assessed as increase in cytochrome c release into cytosol at 3 uM incubated for 8 hrs by immunoblot method; format: functional, cell-based
U-937 [16] = test: Induction of apoptosis in human U937 cells assessed as induction of morphological changes by inverted phase contrast microscopy; format: functional, cell-based
U-937 [17] = test: Induction of apoptosis in human U937 cells assessed as cleavage of pro-caspase-9 at 3 uM incubated for 8 hrs by immunoblot method; format: functional, cell-based
SK-MEL-1 = test: Cytotoxicity against human SK-MEL-1 cells assessed as reduction in cell viability incubated for 72 hrs by MTT assay; format: functional, cell-based; conditions: for IC50: SK-MEL-1, 72 h
U-937 [18] = test: Induction of apoptosis in human U937 cells assessed as induction of cell shrinkage at 3 uM incubated for 8 hrs by Hoechst 33258 staining based fluorescent microscopy; format: functional
U-937 [19] = test: Induction of apoptosis in human U937 cells over-expressing human Bcl-2 assessed as increase in cytochrome c release into cytosol at 3 uM incubated for 8 hrs by immunoblot method; format: functional, cell-based
HL-60 [20] = test: Induction of apoptosis in human HL60 cells assessed as cleavage of pro-caspase-3/7 activity at 3 uM incubated for 8 hrs DEVD-pNA chromogenic substrate proteolytic cleavage assay; format: functional
U-937 [21] = test: Induction of apoptosis in human U937 cells assessed as cleavage of pro-caspase-8 at 3 uM incubated for 8 hrs by immunoblot method; format: functional, cell-based
HL-60 [22] = test: Cytotoxicity against human HL60 cells assessed as reduction in cell viability incubated for 72 hrs by MTT assay; format: functional, cell-based; conditions: for IC50: HL-60, 72 h
HL-60 [23] = test: Induction of apoptosis in human HL60 cells assessed as cleavage of pro-caspase-9 at 3 uM incubated for 8 hrs by immunoblot method; format: functional, cell-based
HL-60 [24] = test: Induction of apoptosis in human HL60 cells assessed as increase in cytochrome c release into cytosol at 3 uM incubated for 8 hrs by immunoblot method; format: functional, cell-based
HL-60 [25] = test: Induction of apoptosis in human HL60 cells assessed as hypodiploid cells level at 1 uM incubated for 24 hrs by propidium iodide staining based flow cytometry relative to untreated control; format: functional
U-937 [26] = test: Induction of apoptosis in human U937 cells over-expressing human Bcl-2 assessed as induction of increase in condensed and fragmented chromatin at 3 uM incubated for 8 hrs by Hoechst 33258 staining based fluorescent microscopy; format: functional, cell-based
HL-60 [27] = test: Induction of apoptosis in human HL60 cells assessed as induction of morphological changes by inverted phase contrast microscopy; format: functional, cell-based
L1210 [28] = test: Cytotoxicity against mouse L1210 cells; format: functional, cell-based

| SMILES | IC50 (HeLa) | Activity (U-937 [1]) | Activity (HL-60 [2]) | Activity (HL-60 [3]) | Activity (U-937 [4]) | Activity (U-937 [5]) | Activity (U-937 [6]) | IC50 (U-937 [6]) | Activity (HL-60 [7]) | IC50 (FM3A) | Activity (HL-60 [8]) | Activity (U-937 [9]) | Activity (U-937 [10]) | IC50 (L1210 [11]) | IC50 (CCRF-CEM) | Activity (U-937 [12]) | IC50 (U-937 [12]) | Activity (HL-60 [13]) | Activity (U-937 [14]) | Activity (U-937 [15]) | other results |
| --- | --- | --- | --- | --- | --- | --- | --- | --- | --- | --- | --- | --- | --- | --- | --- | --- | --- | --- | --- | --- | --- |
| C=C(Br)C(=O)Nc1cccc(-c2cn3c(-c4ccc(OC)cc4)csc3n2)c1 | 0.86 µM | Active | Active | Dose-dependent effect | Active | Active | Dose-dependent effect | 0.37 µM | inactive | 0.62 µM | 11.1% | Active | Active | 0.2 µM | 0.5 µM | Dose-dependent effect | 0.63 µM | Active | Active | Active | Activity (U-937 [16]): Active; Activity (U-937 [17]): Active; Activity (SK-MEL-1): Dose-dependent effect; IC50 (SK-MEL-1): 1 µM; Activity (U-937 [18]): Active; Activity (U-937 [19]): Active; fold change (FC) (HL-60 [20]): 3.8; Activity (U-937 [21]): Active; Activity (HL-60 [22]): Dose-dependent effect; IC50 (HL-60 [22]): 0.61 µM; Activity (HL-60 [23]): Active; Activity (HL-60 [24]): Active; fold change (FC) (HL-60 [25]): 4; Activity (U-937 [26]): Active; Activity (HL-60 [27]): Active |
| C=C(Br)C(=O)Nc1cccc(-c2cn3nc(-c4ccc(OC)c(OC)c4)sc3n2)c1 | 0.61 µM | Active | Active | Dose-dependent effect | Active | Active | Dose-dependent effect | 0.21 µM | inactive | 0.11 µM | 16% | Active | Active | 0.042 µM | 0.38 µM | Dose-dependent effect | 0.27 µM | Active | Active | Active | Activity (U-937 [16]): Active; Activity (U-937 [17]): Active; Activity (SK-MEL-1): Dose-dependent effect; IC50 (SK-MEL-1): 0.77 µM; Activity (U-937 [18]): Active; Activity (U-937 [19]): Active; fold change (FC) (HL-60 [20]): 3.2; Activity (U-937 [21]): Active; Activity (HL-60 [22]): Dose-dependent effect; IC50 (HL-60 [22]): 0.21 µM; Activity (HL-60 [23]): Active; Activity (HL-60 [24]): Active; fold change (FC) (HL-60 [25]): 6; Activity (U-937 [26]): Active; Activity (HL-60 [27]): Active |
| C=C(Br)C(=O)O |  |  |  |  |  |  |  |  |  |  |  |  |  |  |  |  |  |  |  |  | IC50 (L1210 [28]): > 120 µM |
| C=C(Br)C(=O)Nc1cccc(-c2cn3nc(-c4ccc(F)cc4)sc3n2)c1 | 0.87 µM | Active | Active | Dose-dependent effect | Active | Active | Dose-dependent effect | 0.37 µM | inactive | 0.61 µM | 12.1% | Active | Active | 0.25 µM | 0.83 µM | Dose-dependent effect | 0.56 µM | Active | Active | Active | Activity (U-937 [16]): Active; Activity (U-937 [17]): Active; Activity (SK-MEL-1): Dose-dependent effect; IC50 (SK-MEL-1): 1.1 µM; Activity (U-937 [18]): Active; Activity (U-937 [19]): Active; fold change (FC) (HL-60 [20]): 2.3; Activity (U-937 [21]): Active; Activity (HL-60 [22]): Dose-dependent effect; IC50 (HL-60 [22]): 0.53 µM; Activity (HL-60 [23]): Active; Activity (HL-60 [24]): Active; fold change (FC) (HL-60 [25]): 4.6; Activity (U-937 [26]): Active; Activity (HL-60 [27]): Active |

From ChEMBL document CHEMBL3608308, “Design, synthesis and antiproliferative activity of novel heterobivalent hybrids based on imidazo[2,1-b][1,3,4]thiadiazole and imidazo[2,1-b][1,3]thiazole scaffolds” (Eur J Med Chem, 2015)
